Results from the Kinase Knowledgebase extract (Sharma et al. 2016).

Molecular target: MAPK14 (UniProt Q16539)
Assay: MAPK14 (p38) Inhibition
Conditions: concentration not given here

Sequence of MAPK14 (Q16539 whole entry, looked up): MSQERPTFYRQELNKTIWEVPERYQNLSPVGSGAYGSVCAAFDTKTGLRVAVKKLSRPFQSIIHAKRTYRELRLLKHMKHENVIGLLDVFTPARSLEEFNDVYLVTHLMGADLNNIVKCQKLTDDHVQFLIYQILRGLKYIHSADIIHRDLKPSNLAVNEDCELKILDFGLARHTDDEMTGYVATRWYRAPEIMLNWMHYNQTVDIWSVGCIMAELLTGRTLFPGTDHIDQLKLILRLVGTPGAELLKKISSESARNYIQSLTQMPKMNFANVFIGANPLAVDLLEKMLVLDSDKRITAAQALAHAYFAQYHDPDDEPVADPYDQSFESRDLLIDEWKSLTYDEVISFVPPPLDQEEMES

inhibition [%]	SMILES
93	Fc1ccc(-c2[nH]c(C=C(Br)Br)nc2-c2ccncc2)cc1
98	OCCCCC#Cc1nc(-c2ccc(F)cc2)c(-c2ccncc2)n1CCCc1ccccc1
99	OCCCC#Cc1nc(-c2ccc(F)cc2)c(-c2ccncc2)n1CCCc1ccccc1

SMILES	inhibition [%]
C[Si](C)(C)CCOCn1c(C=C(Br)Br)nc(-c2ccncc2)c1-c1ccc(F)cc1	16

Molecular target: MAPK14 (human) (UniProt Q16539)
Assay: TNF-alpha Inhibition (PBMC)
Conditions: not given

Sequence of MAPK14 (human) (Q16539 whole entry, looked up): as above

IC50 [nM]	SMILES
> 2000	C[Si](C)(C)CCOCn1c(C#CCCCC#N)nc(-c2ccncc2)c1-c1ccc(F)cc1
400	O[C@@H](C#Cc1nc(-c2ccncc2)c(-c2ccc(F)cc2)[nH]1)c1ccccc1
> 2000	C[Si](C)(C)CCOCn1c(C#CCCCCO)nc(-c2ccncc2)c1-c1ccc(F)cc1
90	CCCCCCC#Cc1nc(-c2ccc(F)cc2)c(-c2ccncc2)n1CCCc1ccccc1

Tested on: MAPK14 (BALB/cJ mice)
Assay: TNF-alpha Inhibition (Mice Model)
Conditions: dose or concentration not given here

SMILES	inhibition [%]
N#CCCCC#Cc1nc(-c2ccc(F)cc2)c(-c2ccncc2)[nH]1	95
